# Measurements published in ChEMBL document CHEMBL2040823, “A novel class of small-molecule caspase-3 inhibitors prepared by multicomponent reactions” (Eur J Med Chem, 2012).
# Tested on: not listed separately
# Experiment: Octanol-water partition coefficient, log P of the compound by Shake-flask method
# Assay type: physicochemical
row,logP,Compound
1,2.25,CCOC(=O)C1=C(Nc2ccc(Br)cc2)C(=O)N(C2CCCCC2)C1c1ccccc1 (centres undefined)
2,1.8,CCOC(=O)C1=C(NC2CCCCC2)C(=O)N(c2ccc(Br)cc2)C1
3,1.75,CCOC(=O)C1=C(Nc2ccc(Br)cc2)C(=O)N(c2ccc(Br)cc2)C1
4,2,CCOC(=O)C1=C(Nc2cccc3ccccc23)C(=O)N(C2CCCCC2)C1c1ccccc1 (centres undefined)

# Biological target: T1, Caspase-3 (Homo sapiens, UniProt P42574)
# T1 sequence (P42574 whole entry): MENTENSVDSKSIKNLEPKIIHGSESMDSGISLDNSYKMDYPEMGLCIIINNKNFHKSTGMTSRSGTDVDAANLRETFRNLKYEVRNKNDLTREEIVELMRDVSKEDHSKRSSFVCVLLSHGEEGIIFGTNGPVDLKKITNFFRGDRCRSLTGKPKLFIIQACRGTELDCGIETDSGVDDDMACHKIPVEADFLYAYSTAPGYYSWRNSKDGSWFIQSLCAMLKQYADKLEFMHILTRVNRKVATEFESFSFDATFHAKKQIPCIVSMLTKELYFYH
# Experiment: Inhibition of human recombinant caspase-3 catalytic domain using Ac-DEVD-pNA as substrate preincubated for 30 mins before substrate addition measured after 3 mins
row,IC50 [µM],Compound
1,> 45,CCOC(=O)C1=C(NC2CCCCC2)C(=O)N(C2CCCCC2)C1
2,> 45,CCOC(=O)C1=C(Nc2ccc(F)cc2)C(=O)N(c2ccc(F)cc2)C1
3,> 45,CCOC(=O)C1=C(Nc2ccccc2)C(=O)N(c2ccccc2)C1
4,> 45,CCCNC1=C(C(=O)OC)CN(c2ccccc2)C1=O
5,> 45,CCCN1C(=O)C(Nc2ccc(Br)cc2)=C(C(=O)OCC)C1c1ccccc1 (centres undefined)
